From patent publication US6462055B2, “Alpha-methylbenzyl-containing thiourea inhibitors of herpes viruses containing a phenylenediamine group” (Wyeth, priority 1998, dated 2002)
Values after ≈ are worked out from the molar mass of the structure shown.

Experiments:
[1] = tested on: HCMV recombinant mutant virus (RV145); assay: microbe, parasite or virus in culture; format: cell-based, human cytomegalovirus; conditions: for IC50: Human betaherpesvirus 5, read-out: IC50 ug/ml HCMV, HCMV
Text: Microtiter plate assay. Ninety-six well plate cultures of human foreskin fibroblasts are infected in the presence of inhibitor compound with a HCMV recombinant mutant virus whose genome contains the prokaryotic beta-glucuronidase gene (Jefferson, R. A., S. M. Burgess, and D. Hirsh. 1986. Beta-glucuronidase from Escherichia coli as a gene fusion marker. Proc. Natl. Acad. Sci. USA 83:8447-8451) whose expression is controlled by a viral promoter. An example of such a virus is RV145 (Jones, T. R., V. P. Muzithras, and Y. Gluzman. 1991. Replacement mutagenesis of the human cytomegalovirus genome: US10 and US11 gene products are nonessential. J. Virol. 65:5860-5872). Since it is under the control of a viral promoter, beta-glucuronidase expression is an indirect indicator of growth and replication of HCMV in this assay. At 96 hours post-infection, the infected cell lysates are prepared (using 50 mM sodium phosphate [pH7.0]containing 0.1% Triton X-100 and 0.1% sarkosyl) and assayed for beta-glucuronidase activity using a substrate for the enzyme which when cleaved yields either a product which can be measured […] in a spectrophotometer or fluorescently in a microfluorimeter. Examples of such substrates are p-nitrophenyl-beta-D-glucuronide and methylumbelliferylglucuronide, respectively. The presence of an antiviral compound is indicated by the reduced expression of the HCMV genome resident beta-glucuronidase gene, compared to the absence of inhibitor. […] Data from this assay generated using varying amounts of inhibitor compound is also used to estimate the IC50 of an inhibitor compound.

HSV-1 = assay: HSV Antiviral (ELISA) Assay in Vero cells; format: cell-based, herpes simplex virus type 1; conditions: HSV-1, Vero cells; for IC50: Human alphaherpesvirus 1, read-out: IC50 (ug/ml) HSV
Method in brief: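 Viral replication was quantified by cell-fixed ELISA for HSV glycoprotein D, using a β-galactosidase reporter and fluorogenic umbelliferyl substrate, about 24 h after HSV-1 infection (MOI 0.006) of Vero cells. Compounds, at several concentrations, were added 30 min pre-infection. IC50 was derived from fluorescence relative to the compound-free signal.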

VZV strain Ellen = assay: VZV Antiviral (ELISA) Assay in human foreskin fibroblast cells; format: cell-based, varicella-zoster virus; conditions: for inhibition at 10 µg/mL / IC50: Human alphaherpesvirus 3, Fibroblast; for inhibition at 10 µg/mL: read-out: % inhibition 10 ug/ml VZV, 10 ug/ml; for IC50: read-out: IC50 (ug/ml) VZV
Method in brief: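 Antiviral IC50 is derived by comparing fluorescence with and without compound after a three-day culture of VZV-infected plus uninfected foreskin fibroblasts. Replication is quantified by ELISA against glycoprotein II, using a β-galactosidase secondary and methyl umbelliferyl-β-D-galactoside.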

Compound | IC50 ug/ml HCMV [1] | IC50 (ug/ml) HSV (HSV-1) | IC50 (ug/ml) VZV (VZV strain Ellen) | IC50 [1] | other results
COc1cccc(C(=O)Nc2ccc(NC(=S)Nc3cc(Cl)c(OC)cc3OC)cc2)c1 [Example 120] | 5 µg/mL (≈ 10.6 µM) | 0.8 µg/mL (≈ 1.7 µM) | >10 µg/mL | – | % inhibition 10 ug/ml VZV (VZV strain Ellen): 25%
O=C(Nc1ccc(NC(=S)Nc2cccc(C(F)(F)F)c2)cc1)c1ccccc1F [Example 433] | >10 µg/mL | >10 µg/mL | >10 µg/mL | – | % inhibition 10 ug/ml VZV (VZV strain Ellen): 0%
O=C(O)c1cccc(NC(=S)Nc2ccc(NC(=O)c3ccco3)cc2)c1 [Example 964, 3-(3-{4-[(Furan-2-carbonyl)-amino]-phenyl}-thioureido)-benzoic acid] | – | – | – | > 10 µg/mL | IC50 (HSV-1): > 10 µg/mL; inhibition at 10 µg/mL (VZV strain Ellen): 0%; IC50 (VZV strain Ellen): > 10 µg/mL
CC(C)C(NC(=S)Nc1ccc(NC(=O)c2ccccc2F)cc1)c1ccc(F)cc1 (stereo not shown) [Example 790] | 1.5 µg/mL (≈ 3.41 µM) | >10 µg/mL | 2.5 µg/mL (≈ 5.69 µM) | – | –
O=C(Nc1ccc(NC(=S)NCc2cccc(I)c2)cc1)c1ccccc1F [Example 661] | – | – | – | > 0.5 µg/mL | IC50 (HSV-1): > 10 µg/mL
O=C(Nc1ccc(NC(=S)Nc2ccc(Cl)cc2)cc1)c1ccccc1F [Example 946, N-{4-[3-(4-Chloro-phenyl)-thioureido]-phenyl}-2-fluoro-benzamide] | – | – | – | > 10 µg/mL | IC50 (HSV-1): > 10 µg/mL
CCC(NC(=S)Nc1ccc(NC(=O)c2ccccc2F)cc1)c1ccc(F)cc1 (stereo not shown) [Example 771] | 0.4 µg/mL (≈ 0.94 µM) | >10 µg/mL | – | – | –
O=C(Nc1ccc(NC(=S)NCc2cc(C(F)(F)F)ccc2F)cc1)c1ccccc1F [Example 669] | – | – | – | > 0.5 µg/mL | IC50 (HSV-1): > 10 µg/mL
O=C(Nc1ccc(NC(=S)NCCSc2cccc(Br)c2)cc1)c1ccccc1F [Example 680] | >0.5 µg/mL | >10 µg/mL | – | – | –
O=C(Nc1ccc(NC(=S)Nc2cccc(OC(F)(F)F)c2)cc1)c1ccccc1F [Example 961, 2-Fluoro-N-{4-[3-(3-trifluoromethoxy-phenyl)-thioureido]-phenyl}-benzamide] | – | – | – | > 10 µg/mL | inhibition at 10 µg/mL (VZV strain Ellen): 53%; IC50 (VZV strain Ellen): > 10 µg/mL
C[C@H](NC(=S)Nc1ccc(NC(=O)c2nccc3ccccc23)cc1)c1ccc(Br)cc1 [Example 1107] | 8.1 µg/mL (≈ 16 µM) | – | 0.05 µg/mL (≈ 0.0989 µM) | – | –
O=C(Nc1ccc(NC(=S)NCCSc2ccccc2)cc1)c1ccccc1F [Example 656] | >0.5 µg/mL | 5 µg/mL (≈ 11.7 µM) | – | – | –
O=C(Nc1ccc(NC(=S)NCCOc2ccc(Br)cc2)cc1)c1ccccc1F [Example 695] | >3 µg/mL | >10 µg/mL | – | – | –
O=C(Nc1ccc(NC(=S)Nc2cc(N3CCCC3)cc(C(F)(F)F)c2)cc1)c1ccccc1F [Example 566] | >0.5 µg/mL | – | 2 µg/mL (≈ 3.98 µM) | – | –
CC1CN(c2ccc(CNC(=S)Nc3ccc(NC(=O)c4ccccc4F)cc3)cc2C(F)(F)F)CCN1 (stereo not shown) [Example 687] | >0.5 µg/mL | 1.2 µg/mL (≈ 2.2 µM) | – | – | –
O=C(Nc1ccc(NC(=S)NCc2ccc(F)c(Cl)c2)cc1)c1ccccc1F [Example 677] | >0.5 µg/mL | >10 µg/mL | – | – | –
Cc1cc(CCNC(=S)Nc2ccc(NC(=O)c3ccccc3F)cc2)ccc1N(C)C [Example 673] | >0.5 µg/mL | 7 µg/mL (≈ 15.5 µM) | – | – | –

Compound | IC50 ug/ml HCMV [1] | IC50 (ug/ml) HSV (HSV-1) | IC50 (ug/ml) VZV (VZV strain Ellen) | IC50 [1] | other results
CN(C)c1ccc(CNC(=S)Nc2ccc(NC(=O)c3ccccc3F)cc2)cc1C(F)(F)F [Example 610] | >0.5 µg/mL | – | >10 µg/mL | – | –
O=C(Nc1ccc(NC(=S)NCCOc2ccc(I)cc2)cc1)c1ccccc1F [Example 696] | – | – | – | > 3 µg/mL | IC50 (HSV-1): 10 µg/mL (≈ 18.7 µM)
O=C(Nc1ccc(NC(=S)NCCc2ccccc2)cc1)c1ccccc1F [Example 576] | – | – | – | > 0.5 µg/mL | IC50 (VZV strain Ellen): 8 µg/mL (≈ 20.3 µM)
COc1ccccc1C(=O)Nc1ccc(NC(=S)NC(C)c2ccc(F)cc2)cc1 (stereo not shown) [Example 752] | >0.5 µg/mL | >10 µg/mL | – | – | –
C[C@H](NC(=S)Nc1ccc(NC(=O)c2ccc(F)cc2)cc1)c1ccc(Br)cc1 [Example 1103] | 3.4 µg/mL (≈ 7.2 µM) | – | 0.47 µg/mL (≈ 0.995 µM) | – | –
COc1ccc(C(=O)Nc2ccc(NC(=S)Nc3cc(Br)c(OC)cc3OC)cc2)cc1 [Example 830, N-{4-[3-(5-Bromo-2,4-dimethoxy-phenyl)-thioureido]-phenyl}-4-methoxy-benzamide] | – | – | – | > 10 µg/mL | inhibition at 10 µg/mL (VZV strain Ellen): 16%; IC50 (VZV strain Ellen): > 10 µg/mL
CN(C)c1cc(CCNC(=S)Nc2ccc(NC(=O)c3ccccc3F)cc2)cc(C(F)(F)F)c1 [Example 653] | >0.5 µg/mL | >10 µg/mL | – | – | –
C[C@H](NC(=S)Nc1ccc(NC(=O)c2cc3ccccc3cn2)cc1)c1ccc(Br)cc1 [Example 1108] | 2.3 µg/mL (≈ 4.55 µM) | – | 0.05 µg/mL (≈ 0.0989 µM) | – | –
O=C(Nc1ccc(NC(=S)NC(c2ccccc2)c2ccc(F)cc2)cc1)c1ccccc1F (stereo not shown) [Example 772] | 0.35 µg/mL (≈ 0.739 µM) | >10 µg/mL | – | – | –
Nc1ccc(F)cc1NC(=S)Nc1ccc(NC(=O)c2ccccc2F)cc1 [Example 1007, N-{4-[3-(2-Amino-5-fluoro-phenyl)-thioureido]-phenyl}-2-fluoro-benzamide] | – | – | – | > 10 µg/mL | IC50 (VZV strain Ellen): > 10 µg/mL
CC(NC(=S)Nc1ccc(NC(=O)c2ccccc2F)cc1)c1ccc(Br)cc1 (stereo not shown) [Example 1102] | 1.7 µg/mL (≈ 3.6 µM) | – | 0.2 µg/mL (≈ 0.423 µM) | – | –
COc1ccccc1C(=O)Nc1ccc(NC(=S)N[C@H](C)c2ccc(Br)cc2)cc1 [Example 1105] | 2.5 µg/mL (≈ 5.16 µM) | – | >7.5 µg/mL | – | –
COC(=O)c1cccc(C(=O)Nc2ccc(NC(=S)Nc3cc(Cl)c(OC)cc3OC)cc2)c1 [Example 208] | >10 µg/mL | – | >10 µg/mL | – | % inhibition 10 ug/ml VZV (VZV strain Ellen): 25%
O=C(Nc1ccc(NC(=S)NCc2ccc(F)c(F)c2)cc1)c1ccccc1F [Example 672] | – | – | – | > 0.5 µg/mL | IC50 (HSV-1): > 10 µg/mL
O=C(Nc1ccc(NC(=S)NCCc2ccc(Cl)c(Cl)c2)cc1)c1ccccc1F [Example 719] | >0.5 µg/mL | >10 µg/mL | – | – | –
CN(C)c1cc(NC(=S)Nc2ccc(NC(=O)c3ccccc3F)cc2)cc(C(F)(F)F)c1 [Example 567] | – | – | – | > 0.5 µg/mL | IC50 (VZV strain Ellen): 2 µg/mL (≈ 4.2 µM)
